{
  "source": "paper PMC6509344",
  "about": "“Novel CMKLR1 Inhibitors for Application in Demyelinating Disease” (Scientific Reports, 2019)",
  "key": {"[1]": {"target": "T1, CMKLR1 (Homo sapiens, UniProt Q99788)", "T1 construct": "host or cells: CHO-K1 (PathHunter CMKLR1 β-Arrestin cells)", "T1 sequence (Q99788 1-373)": "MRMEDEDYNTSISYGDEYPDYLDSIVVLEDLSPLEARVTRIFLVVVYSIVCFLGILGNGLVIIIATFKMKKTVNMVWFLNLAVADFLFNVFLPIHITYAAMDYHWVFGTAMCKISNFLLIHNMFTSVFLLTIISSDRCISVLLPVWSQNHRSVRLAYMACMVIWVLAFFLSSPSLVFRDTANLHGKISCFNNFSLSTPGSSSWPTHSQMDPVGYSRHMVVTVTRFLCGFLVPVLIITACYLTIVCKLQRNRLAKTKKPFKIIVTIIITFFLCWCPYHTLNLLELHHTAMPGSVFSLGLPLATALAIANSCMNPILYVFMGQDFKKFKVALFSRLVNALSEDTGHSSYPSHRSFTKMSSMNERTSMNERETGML", "test": "β-arrestin recruitment assay (chemerin-dependent β-arrestin2 signaling)", "assay_type": "cell-based", "settings": "CMKLR1-CHO-β-Arrestin cells, 20 nM chemerin, read-out: β-arrestin IC50 mean ± SEM (n)", "description": "DiscoverX PathHunter® CHO-K1 CMKLR1 β-Arrestin Cells were grown in RPMI lacking phenol red (Gibco, Life Technologies), supplemented with L-glutamine, penicillin-streptomycin, sodium pyruvate, non-essential amino acid, BCS, hygromycin, and G418-sulfate. CMKLR1-CHO-β-Arrestin cells were seeded in 96 well plates at 1 × 10^5 cell/ml- 100 ul/well and incubated overnight at 37 °C, 5% CO2. […] (α-NETA and test compounds were reconstituted in DMSO; final DMSO concentration in each well was 0.1%). After 10 min, 5 ul of recombinant human chemerin (R&D Systems) at a final concentration of 20 nM was added to each well. Plates were incubated for 90 min at 37 °C, 5% CO2. Media was then removed and 50 ul of chemiluminescent substrate (Tropix Gal-Screen, Applied Biosciences) was added. The plate was incubated for 1 hr at RT and luminescence was detected using the SpectraMax M5 plate reader (Molecular Devices). For each independent trial (single replicate dose curves), data was normalized to the maximum signal per compound tested and an IC50 value was generated using GraphPad Prism software. The average IC50 value for n independent trials (as specified in the table) is reported."}, "[2]": {"tested_on": "(hu)CMKLR1 L1.2 cells", "test": "Chemotaxis assay toward huChemerin", "assay_type": "cell-based, human", "settings": "Homo sapiens; (hu)CMKLR1 L1.2 cells migrating toward huChemerin, 2 h; read-out: Chemotaxis IC50 mean ± SEM (n)", "description": "(hu)CMKLR1 transfectants (generated in L1.2 pre-B cell lymphoma cells) were grown in RPMI 1640 (Corning) supplemented with L-glutamine, penicillin-streptomycin, and 10% BCS and G418-sulfate (KSE Scientific). DiscoverX PathHunter® CHO-K1 CMKLR1 β-Arrestin Cells were grown in RPMI lacking phenol red (Gibco, Life Technologies), supplemented with L-glutamine, penicillin-streptomycin, sodium pyruvate, non-essential amino acid, BCS, hygromycin, and G418-sulfate.\n(hu)CMKLR1 L1.2 cells at 1 × 10^6 cell/ml were treated with 5 mM sodium butyrate (Sigma) overnight to induce hCMKLR1 expression. The next day, cells were washed in migration media (RPMI + 0.5%BSA) and resuspended at 1.5–3 × 10^6 cell/ml. Cells were pre-incubated at RT for 10 min with various concentrations of α-NETA or test compounds (α-NETA and test compounds were reconstituted in DMSO; final DMSO concentration in each well was 0.1%). 100 ul of cells were added to the upper chamber of a 24-well transwell plate (5 um pore size, Costar). Cells were allowed to migrate toward huChemerin ([…] in migration media, bottom chamber) for 2 h, 37 °C, 5% CO2. The number of migrated cells was quantified by flow cytometry (BD LSR2), and live cells were distinguished based on FSC × SSC properties. The background for this assay was typically low with 0 cells migrating to the buffer alone. For each independent trial, data was normalized to the maximum migration per compound tested and an IC50 value was generated using GraphPad Prism software. The average IC50 value for n independent trials (as specified in the table) is reported."}, "[3]": {"tested_on": "C57BL/6 mice with EAE", "test": "Experimental autoimmune encephalomyelitis (EAE), MOG35–55/CFA immunization", "assay_type": "in vivo, mouse", "description": "C57BL/6 mice were purchased from The Jackson Laboratory. […] Animal experiments were conducted in accordance with approved Veterans Affairs, National Institutes of Health, and Institutional Animal Care and Use Committee guidelines.\nCFA consisted of 5 mg/ml mTB (Mycobacterium-tuberculosis H37 Ra, BD Difco) in IFA (Incomplete Freund’s Adjuvant, Sigma). MOG35–55 was reconstituted at 2 mg/ml in PBS. Mice also received 200 ng pertussis toxin (List Biological Laboratories, Inc) by i.p. injection at the time of immunization and two days later. […] For a direct comparison to α-NETA, the DMF and compound doses were also 10 mg/kg in 10% captisol. Mice were monitored daily for clinical disease and scored (0 = normal/healthy, 1 = limp tail, 2 = hindlimb weakness, 3 = hindlimb paralysis, 4 = hindlimb and forelimb paralysis, 5 = moribund/dead)."}, "[4]": {"target": "T2, CYP3A4 (Homo sapiens, UniProt P08684)", "T2 construct": "tissue Cyprotex/Evotec AG; host or cells: human liver microsomes", "T2 sequence (P08684 whole entry)": "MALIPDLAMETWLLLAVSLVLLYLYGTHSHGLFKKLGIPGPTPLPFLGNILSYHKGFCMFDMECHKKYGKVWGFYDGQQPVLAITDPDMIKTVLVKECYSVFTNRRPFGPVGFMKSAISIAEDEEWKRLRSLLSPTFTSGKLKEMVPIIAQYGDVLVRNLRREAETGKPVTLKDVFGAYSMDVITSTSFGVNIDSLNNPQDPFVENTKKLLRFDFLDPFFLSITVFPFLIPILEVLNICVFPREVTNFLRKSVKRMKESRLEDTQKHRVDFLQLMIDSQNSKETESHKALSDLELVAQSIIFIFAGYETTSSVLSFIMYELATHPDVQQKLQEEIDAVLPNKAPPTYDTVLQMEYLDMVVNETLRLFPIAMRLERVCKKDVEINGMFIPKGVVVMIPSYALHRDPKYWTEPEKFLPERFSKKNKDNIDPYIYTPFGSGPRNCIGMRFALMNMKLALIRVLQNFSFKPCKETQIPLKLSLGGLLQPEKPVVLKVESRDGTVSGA", "test": "Cyp enzyme inhibition in human liver microsomes", "assay_type": "in vitro ADME"}, "[5]": {"tested_on": "Pregnane X receptor (PXR)", "test": "Cyp induction: PXR luciferase reporter in human hepatoma cell line", "assay_type": "cell-based", "settings": "concentrations up to 50 uM", "description": "Pregnane X receptor (PXR) activation was used as a marker of Cyp induction. An engineered human hepatoma cell line with a PXR luciferase reporter was incubated with the indicated concentrations of α-NETA, Rifampicin (positive control), or DMSO (negative control), and luciferase activity assessed (Cyprotex/Evotec AG)."}, "[6]": {"test": "Acute single dose toxicity (LD50)", "settings": "C57BL/6, mouse, in vivo; p.o. (oral gavage) in 10% captisol, WT C57BL6 mice, 14 days monitoring", "protocol": "C57/BL6 mice received one treatment of α-NETA (formulated in 10% captisol, Cydex Pharmaceuticals) at the following doses: 3000, 1000, 300, 100, 30, 0 mg/kg by oral gavage (200 ul/dose, 3 mice/group). Mouse survival was monitored and body weight was measured daily for 14 days. On day 14 the mice were euthanized and the wet weight for the following tissues: kidney, brain, spleen, liver, heart, and lung, was recorded."}, "[7]": {"tested_on": "Cyp1A2", "set-up": "method as in PubChem BioAssay ID 1476", "settings": "ref PubChem BioAssay ID 1476; cited from earlier work"}, "[8]": {"tested_on": "Cyp2D6", "set-up": "method as in PubChem BioAssay ID 1461", "settings": "ref PubChem BioAssay ID 1461; cited from earlier work"}, "[9]": {"tested_on": "Cyp3A4", "set-up": "method as in PMID 25437209", "settings": "substrate luciferin-6′ phenylpiperazinylyl; PubChem; cited from earlier work"}},
  "note": "Like-named read-outs stand apart in the source and are kept apart here.",
  "data": [
    {"smiles": "C[N+](C)(C)CCC(=O)c1cccc2ccccc12.[I-]", "note": "[α-NETA, 2-(α-naphthoyl) ethyltrimethylammonium iodide]", "values": [
      {"measurement": "IC50", "setting": "[1]; Table 2 tertiary amines", "value": "4.9 ± 1.5", "unit": "µM"},
      {"measurement": "IC50", "setting": "[1]; Table 3 quaternary ammonium salts", "value": "4.9 ± 1.5", "unit": "µM"},
      {"measurement": "IC50", "setting": "[2]", "value": "37 ± 8.9", "unit": "µM"},
      {"measurement": "day of EAE onset (mean ± SEM)", "setting": "[3]; Fig. 1 study, 10 mg/kg daily in 10% captisol, s.c., d29 onset assumed for 2 α-NETA mice", "value": "21 ± 2", "unit": "days"},
      {"measurement": "Day of onset (Mean ± SEM)", "setting": "[3]; Table 4, 10 mg/kg daily to D21, n = 8", "value": "14.4 ± 0.6"},
      {"measurement": "Maximum Score (Mean ± SEM)", "setting": "[3]; Table 4, 10 mg/kg daily to D21, n = 8, clinical score 0-5", "value": "2.6 ± 0.2"},
      {"measurement": "AUC (Mean ± SEM) of clinical score", "setting": "[3]; Table 4, 10 mg/kg daily to D21, n = 8, mean clinical score x day", "value": "31.9 ± 4.0"},
      {"measurement": "IC50", "setting": "[4]; human, liver microsomes, probe midazolam, substrate Midazolam", "value": 7.4, "unit": "µM"},
      {"measurement": "IC50", "setting": "[4]; substrate Midazolam", "value": 7.5, "unit": "µM"},
      {"measurement": "IC50", "setting": "[4]; substrate testosterone", "value": 6.9, "unit": "µM"},
      {"measurement": "PXR activation (marker of Cyp induction)", "setting": "[5]", "value": "did not induce substantial PXR activity"},
      {"measurement": "LD50 at 14 days", "setting": "[6]", "value": 873, "unit": "mg/kg"},
      {"measurement": "IC50", "setting": "[7]", "value": 8, "unit": "µM"},
      {"measurement": "IC50", "setting": "[8]", "value": "> 10", "unit": "µM"},
      {"measurement": "IC50", "setting": "[9]", "value": 0.2, "unit": "µM"}
    ]}
  ]
}
